Like-named read-outs stand apart in the source and are kept apart here.

For test [1], the target named is SvelOBP1. Nature of the test: Competitive fluorescence binding assay (displacement of 1-NPN). The conditions noted are these: for IC50: 2 μM recombinant SvelOBP1/1-NPN, ligand 0-16 μM, 20 mM Tris-HCl pH7.4, three replicates, read-out: IC50 (ligand concentration replacing 50% of initial fluorescence of SvelOBP1/1-NPN mixture). Further details: species or system Sympiezomias velatus. As to the method:
(§1) The fluorescent probe 1-N-phenyl-naphthylamine (1-NPN) was used to evaluate the binding affinity of SvelOBP1 protein to different ligands. Forty-three host plant volatiles from leaves of jujube trees were selected as putative ligands (Table 2). Fluorescence-based ligand binding assays were performed on an F-2700 fluorescence spectrophotometer (Hitachi, Tokyo, Japan). The excitation wavelength was 337 nm, and the emission spectra were in the range from 370 to 550 nm. First, all tested ligands and 1-NPN were dissolved in chromatographic methanol and diluted to 1 mM as the stock solution. Second, the recombinant protein was diluted to 2 μM with 20 mM Tris-HCl (pH7.4), and 2 mL of the protein solution was placed in a 1 cm light path quartz cuvette.
(§2) The dissociation constants K1-NPN of 1-NPN to SvelOBP1 were calculated by GraphPad Prism 8.0 software with non-linear regression for the one site-specific binding method. The inhibitory constant (Ki) of each ligand binding to SvelOBP1 was calculated with Equation (1). IC50 is the ligand concentration replacing 50% of the initial fluorescence intensity of the SvelOBP1/1-NPN mixture. [1-NPN] represents the free concentration of 1-NPN. […] (1) Ki=IC50/(1+[1−NPN]/K1−NPN)

Test [2] addresses SvelOBP1. Nature of the test: Binding of fluorescent probe 1-NPN to SvelOBP1 (titration, Scatchard plot). Further details: species or system Sympiezomias velatus. The conditions noted are these: 2 μM SvelOBP1 titrated with 1-NPN 0-16 μM, pH7.4; read-out: dissociation constant (Kd) of 1-NPN. As to the method:
as §1, §2

Test [3] concerns the target SvelOBP15. Further details: method as in PMID 35711318. The conditions noted are these: cited from earlier work.
[4] abbreviates: Ki=IC50/(1+[1-NPN]/K1-NPN), 2 μM SvelOBP1/1-NPN, pH7.4, mean ± SEM, read-out: Ki (inhibitory constant).
Where [5] appears, read: class in words by Ki, read-out: binding affinity class.

`CC12CCC(CC1)C(C)(C)O2` [1,3,3-trimethyl-2-oxabicyclo [2.2.2]octane]: the IC50 in test [1] (mean ± SEM) worked out at 13.81 ± 0.13 µM. Moreover, the Ki in test [1] (setting [4]) was determined as 11.48 ± 0.11 µM.

Turning to `CC(=O)c1ccc(C)c(C)c1` [1-(3,4-dimethylphenyl)ethanone], the IC50 in test [1] (mean ± SEM) was > 16 µM.

`CCc1ccc(C(C)=O)cc1` [1-(4-ethylphenyl)ethanone]: the IC50 in test [1] (mean ± SEM) was 13.1 ± 0.16 µM. Besides, the figures for the Ki in test [1] (setting [4]) and in test [1] (setting [5]) were 10.9 ± 0.13 µM and 10 to 16 µM, respectively.

What is called Kd is the equilibrium constant for the complex coming apart. With `c1ccc(Nc2cccc3ccccc23)cc1` [1-NPN, 1-N-phenyl-naphthylamine], the Kd in test [2] was 4.92 ± 0.04 µM.

`C=C(C)C1CC=C(C)CC1` (stereo not drawn) [1-methyl-4-prop-1-en-2-ylcyclohexene]: the IC50 in test [1] (mean ± SEM) was found to be 13.11 ± 0.02 µM. For the same compound, the Ki in test [1] (setting [4]) was 10.9 ± 0.01 µM.

For `C=C1C2CCC(C2)C1(C)C` (stereo not drawn) [2,2-dimethyl-3-methylidenebicyclo [2.2.1]heptane], in test [1] (mean ± SEM), the IC50 is > 16 µM.

With `O=C1CCCC1C1CCCC1` (stereo not drawn) [2-cyclopentylcyclopentan-1-one], in test [1] (mean ± SEM), the IC50 is > 16 µM.

In the case of `C=CCc1ccc(O)c(OC)c1` [2-methoxy-4-prop-2-enylphenol], in test [1] (mean ± SEM), the IC50 was > 16 µM.

Turning to `CC1=CCC(C(C)C)C=C1` (stereo not drawn) [2-methyl-5-propan-2-ylcyclohexa-1,3-diene], the IC50 in test [1] (mean ± SEM) was 11.69 ± 0.07 µM. Besides, the Ki in test [1] (setting [4]) stood at 9.71 ± 0.06 µM.

In the case of `CC(C)=Cc1ccccc1` [2-methylprop-1-enylbenzene], the IC50 in test [1] (mean ± SEM) is > 16 µM.

As for `CC(C)C=O` [2-methylpropanal], the IC50 in test [1] (mean ± SEM) is > 16 µM.

`CC1=CCC2C(C1)C2(C)C` (stereo not drawn) [3,7,7-trimethylbicyclo [4.1.0]hept-3-ene]: in test [1] (mean ± SEM), the IC50 stood at 14.56 ± 0.07 µM. For the same compound, the Ki in test [1] (setting [4]) turned out to be 12.1 ± 0.06 µM.

With `C=CC(C)=CCC=C(C)C` [3,7-dimethylocta-1,3,6-triene], the IC50 in test [1] (mean ± SEM) stood at 11.13 ± 0.06 µM. The Ki in test [1] (setting [4]) worked out at 9.25 ± 0.05 µM.

Consider `C=CC(C)(O)CCC=C(C)C` (stereo not drawn) [3,7-dimethylocta-1,6-dien-3-ol], for which the IC50 in test [1] (mean ± SEM) stood at 13.6 ± 0.16 µM. For the same compound, the Ki in test [1] (setting [4]) was 11.3 ± 0.13 µM.

`C=CC(=C)CCC=C(C)C` [7-methyl-3-methylideneocta-1,6-diene]: the IC50 in test [1] (mean ± SEM) is > 16 µM.

For the compound `CC1=CC[C@H]2C[C@@H]1C2(C)C` [(1S,5S)-2,6,6-trimethylbicyclo [3.1.1]hept-2-ene], in test [1] (mean ± SEM), the IC50 was > 16 µM.

Regarding `CC(C)=CCC/C(C)=C/CO` [(2E)-3,7-dimethylocta-2,6-dien-1-ol], the IC50 in test [1] (mean ± SEM) is > 16 µM.

For `CC(C)=CCC/C(C)=C/C(=O)O` [(2E)-3,7-dimethylocta-2,6-dienoic acid], in test [1] (mean ± SEM), the IC50 was > 16 µM.

Take `CC(C)=CCC/C(C)=C/CC/C(C)=C/CO` [(2E,6E)-3,7,11-trimethyldodeca-2,6,10-trien-1-ol]: the IC50 in test [1] (mean ± SEM) came out at 14.4 ± 0.17 µM. For the same compound, in test [1] (setting [4]), the Ki is 11.9 ± 0.14 µM.

In the case of `C=C/C(C)=C/C/C=C(\C)CCC=C(C)C` [(3E,6E)-3,7,11-trimethyldodeca-1,3,6,10-tetraene], the Ki in test [1] (setting [4]) came to 8.73 ± 0.09 µM.

On to `C=CC(C)(O)CC/C=C(\C)CCC=C(C)C` (stereo not drawn) [(6E)-3,7,11-trimethyldodeca-1,6,10-trien-3-ol], for which the IC50 in test [1] (mean ± SEM) was > 16 µM.

`CC(C)=CCC/C(C)=C/CC/C(C)=C/CC/C=C(\C)CC/C=C(\C)CCC=C(C)C` [(6E,10E,14E,18E)-2,6,10,15,19,23-hexamethyltetracosa-2,6,10,14,18,22-hexaene]: the IC50 in test [1] (mean ± SEM) is > 16 µM.

On to `C/C(=C\CO)CCCC(C)CCCC(C)CCCC(C)C` (stereo not drawn) [(E)-3,7,11,15-tetramethylhexadec-2-en-1-ol], for which the IC50 in test [1] (mean ± SEM) is > 16 µM.

With `CCC/C=C/CO` [(E)-hex-2-en-1-ol], in test [1] (mean ± SEM), the IC50 came to 15.44 ± 0.14 µM. In test [1] (setting [4]), the Ki turned out to be 12.83 ± 0.12 µM.

With `CC/C=C\CCO` [(Z)-hex-3-en-1-ol], the Ki is > 16 µM in test [3], 7.98 ± 0.08 µM in test [1] (setting [4]) and 5 to 10 µM in test [1] (setting [5]).

Regarding `CC(C)COC(=O)CCCCC(=O)OCC(C)C` [Bis(2-methylpropyl) hexanedioate], the IC50 in test [1] (mean ± SEM) was > 16 µM.

For the compound `CCCCOC(C)=O` [Butyl acetate], the IC50 in test [1] (mean ± SEM) came out at 13.2 ± 0.47 µM. Moreover, in test [1] (setting [4]), the Ki turned out to be 10.9 ± 0.39 µM.

As to `CCCCOC(=O)c1ccccc1C(=O)OCCCC` [Dibutyl benzene-1,2-dicarboxylate], the Ki in test [1] (setting [4]) came to 6.66 ± 0.03 µM.

Turning to `CCCCCCCCCCCC` [Dodecane], in test [1] (mean ± SEM), the IC50 was > 16 µM.

Consider `CCOC(=O)C(C)CC` (stereo not drawn) [Ethyl 2-methylbutyrate], for which the IC50 in test [1] (mean ± SEM) is 11.28 ± 0.1 µM. For the same compound, the Ki in test [1] (setting [4]) turned out to be 9.37 ± 0.08 µM.

As to `CCOC(=O)CC(C)C` [Ethyl 3-methylbutanoate], the IC50 in test [1] (mean ± SEM) is > 16 µM.

As for `C/C=C(\C)C(=O)OCC` [Ethyl (E)-2-methylbut-2-enoate], in test [1] (mean ± SEM), the IC50 is > 16 µM.

Turning to `CCCC(=O)OCC` [Ethyl butyrate], the IC50 in test [1] (mean ± SEM) came out at 14.2 ± 0.16 µM. In addition, in test [1] (setting [4]), the Ki was 11.8 ± 0.13 µM.

Take `CCCCC(=O)OCC` [Ethyl pentanoate]: the IC50 in test [1] (mean ± SEM) came out at 14.1 ± 0.31 µM. Moreover, the Ki in test [1] (setting [4]) is 11.7 ± 0.26 µM.

With `CCCCCCCCCCCCCCCC(=O)O` [Hexadecanoic acid], the IC50 in test [1] (mean ± SEM) came to 14.1 ± 0.33 µM. Moreover, the Ki in test [1] (setting [4]) is 11.7 ± 0.27 µM; in test [1] (setting [5]), 10 to 16 µM.

Turning to `COC(=O)c1ccccc1O` [Methyl 2-hydroxybenzoate], in test [1] (mean ± SEM), the IC50 is > 16 µM.

Consider `C=CC(O)CCCCC` (stereo not drawn) [Oct-1-en-3-ol], for which the IC50 in test [1] (mean ± SEM) was 15.18 ± 0.13 µM. For the same compound, the Ki in test [1] (setting [4]) turned out to be 12.61 ± 0.11 µM.

Turning to `OCc1ccccc1` [Phenylmethanol], in test [1] (mean ± SEM), the IC50 stood at 11.3 ± 0.27 µM. In test [1] (setting [4]), the Ki was determined as 9.4 ± 0.23 µM.

For `CCC/C=C/COC(C)=O` [[(E)-hex-2-en-1-yl] acetate], the IC50 in test [1] (mean ± SEM) is > 16 µM.

Turning to `CCC/C=C/COC(=O)CCCCC` [[(E)-hex-2-enyl] hexanoate], the IC50 in test [1] (mean ± SEM) stood at 14.51 ± 0.06 µM. Also, the Ki in test [1] (setting [4]) amounted to 12.06 ± 0.05 µM.

For the compound `CC/C=C\CCOC(=O)C(C)CC` (stereo not drawn) [[(Z)-hex-3-enyl] 2-methylbutanoate], in test [1] (mean ± SEM), the IC50 is 13.4 ± 0.2 µM. The Ki in test [1] (setting [4]) came out at 11.2 ± 0.16 µM.

Turning to `CC/C=C\CCOC(=O)CC(C)C` [[(Z)-hex-3-enyl] 3-methylbutanoate], in test [1] (mean ± SEM), the IC50 came to 14.4 ± 0.16 µM. In addition, the Ki in test [1] (setting [4]) was determined as 11.9 ± 0.13 µM.

Consider `CC/C=C\CCOC(C)=O` [[(Z)-hex-3-enyl] acetate], for which the IC50 in test [1] (mean ± SEM) turned out to be 14.45 ± 0.11 µM. In addition, in test [1] (setting [4]), the Ki is 12.01 ± 0.09 µM.

For the compound `CC/C=C\CCOC(=O)CCC` [[(Z)-hex-3-enyl] butanoate], in test [1] (mean ± SEM), the IC50 came to 15.5 ± 0.9 µM. Moreover, the Ki in test [1] (setting [4]) was 12.9 ± 0.75 µM.
